# Assay results from patent US7750003B2, “Compounds-943” (AstraZeneca AB, priority 2006, dated 2010).
# Biological target: recombinant mTOR (FLAG-tagged, residues 1362-2549) (Homo sapiens, UniProt P42345)
# Assay: In vitro mTOR kinase assay (Test (a), AlphaScreen)
# Type: biochemical
# Conditions: ATP 20 μM, read-out: Test (a): IC50 versus mTOR kinase
# Experimental: (a) In Vitro mTOR Kinase Assay
# Following expression in the mammalian HEK293 cell line, expressed protein was purified using the FLAG epitope tag using standard purification techniques.
# Aliquots (2 μl) of each compound dilution were placed into a well of a Greiner 384-well low volume (LV) white polystyrene plate (Greiner Bio-one).
# These assay solutions were incubated for 2 hours at room temperature.
# The resultant signals arising from laser light excitation at 680 nm were read using a Packard Envision instrument.
# The phosphorylated biotinylated peptide that is associated with AlphaScreen Streptavidin donor beads forms a complex with the p70 S6 Kinase (T389) 1A5 Monoclonal Antibody that is associated with Alphascreen Protein A acceptor beads. Upon laser light excitation at 680 nm, the donor bead: acceptor bead complex produces a signal that can be measured. Accordingly, the presence of mTOR kinase activity results in an assay signal. In the presence of an mTOR kinase inhibitor, signal strength is reduced.
# mTOR enzyme inhibition for a given test compound was expressed as an IC50 value.
# Chain of recombinant mTOR (FLAG-tagged, residues 1362-2549) (P42345 1362-2549): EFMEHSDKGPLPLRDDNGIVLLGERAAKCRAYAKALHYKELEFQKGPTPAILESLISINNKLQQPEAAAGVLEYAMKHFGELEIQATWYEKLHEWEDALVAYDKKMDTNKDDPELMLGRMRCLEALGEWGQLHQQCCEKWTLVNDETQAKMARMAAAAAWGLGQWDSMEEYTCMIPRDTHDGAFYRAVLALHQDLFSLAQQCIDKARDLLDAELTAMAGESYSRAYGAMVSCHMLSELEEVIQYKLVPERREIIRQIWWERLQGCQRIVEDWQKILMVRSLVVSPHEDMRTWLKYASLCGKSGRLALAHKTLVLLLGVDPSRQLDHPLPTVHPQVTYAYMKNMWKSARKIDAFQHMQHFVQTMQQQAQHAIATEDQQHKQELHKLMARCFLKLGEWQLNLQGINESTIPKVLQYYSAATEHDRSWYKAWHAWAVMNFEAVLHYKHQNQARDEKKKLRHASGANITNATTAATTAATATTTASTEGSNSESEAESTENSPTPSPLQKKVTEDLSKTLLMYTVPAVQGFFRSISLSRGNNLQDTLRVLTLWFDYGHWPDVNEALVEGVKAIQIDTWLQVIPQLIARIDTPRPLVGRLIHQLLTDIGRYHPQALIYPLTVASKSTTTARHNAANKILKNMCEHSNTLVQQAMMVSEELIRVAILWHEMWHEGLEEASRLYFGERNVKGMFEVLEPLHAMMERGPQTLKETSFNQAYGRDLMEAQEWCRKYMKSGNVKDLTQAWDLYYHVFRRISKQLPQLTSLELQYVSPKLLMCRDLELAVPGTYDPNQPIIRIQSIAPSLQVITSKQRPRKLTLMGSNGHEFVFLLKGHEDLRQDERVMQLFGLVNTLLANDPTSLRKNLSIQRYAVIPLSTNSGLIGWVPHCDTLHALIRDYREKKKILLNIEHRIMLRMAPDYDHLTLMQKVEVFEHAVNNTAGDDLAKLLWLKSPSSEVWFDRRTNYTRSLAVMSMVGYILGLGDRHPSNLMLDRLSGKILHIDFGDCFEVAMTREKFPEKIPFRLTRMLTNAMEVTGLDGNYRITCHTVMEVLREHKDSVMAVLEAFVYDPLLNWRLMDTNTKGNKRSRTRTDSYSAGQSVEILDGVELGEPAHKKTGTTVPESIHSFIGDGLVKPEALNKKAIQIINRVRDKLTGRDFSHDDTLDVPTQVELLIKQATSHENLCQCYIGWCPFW
row,SMILES,IC50 [nM]
1,"CS(=O)(=O)Cc1cc(N2CCOCC2)nc(-c2ccc(NC(=O)Nc3ccc(Cl)cc3)cc2)n1 [Example 7b, 3-(4-chlorophenyl)-1-[4-[4-(methylsulfonylmethyl)-6-morpholin-4-yl-pyrimidin-2-yl]phenyl]urea]",420
2,"CS(=O)(=O)Cc1cc(N2CCOCC2)nc(-c2ccc(NC(=O)Nc3ccc(C(F)(F)F)cc3)cc2)n1 [Example 7c, 1-[4-[4-(methylsulfonylmethyl)-6-morpholin-4-yl-pyrimidin-2-yl]phenyl]-3-[4-(trifluoromethyl)phenyl]urea]",1700
3,"Cc1cc(C)cc(NC(=O)Nc2ccc(-c3nc(CS(C)(=O)=O)cc(N4CCOCC4)n3)cc2)c1 [Example 7d, 1-(3,5-dimethylphenyl)-3-[4-[4-(methylsulfonylmethyl)-6-morpholin-4-yl-pyrimidin-2-yl]phenyl]urea]",2600
4,"CS(=O)(=O)Cc1cc(N2CCOCC2)nc(-c2ccc(NC(=O)Nc3ccccc3OC(F)F)cc2)n1 [Example 7e, 3-[2-(difluoromethoxy)phenyl]-1-[4-[4-(methylsulfonylmethyl)-6-morpholin-4-yl-pyrimidin-2-yl]phenyl]urea]",2600
5,"CS(=O)(=O)Cc1cc(N2CCOCC2)nc(-c2ccc(NC(=O)Nc3ccc(F)c(Cl)c3)cc2)n1 [Example 7g, 3-(3-chloro-4-fluoro-phenyl)-1-[4-[4-(methylsulfonylmethyl)-6-morpholin-4-yl-pyrimidin-2-yl]phenyl]urea]",1300
6,"CS(=O)(=O)Cc1cc(N2CCOCC2)nc(-c2ccc(NC(=O)Nc3ccccc3)cc2)n1 [Example 7h, 1-[4-[4-(methylsulfonylmethyl)-6-morpholin-4-yl-pyrimidin-2-yl]phenyl]-3-phenyl-urea]",240
7,"CCCCCNC(=O)Nc1ccc(-c2nc(CS(C)(=O)=O)cc(N3CCOCC3)n2)cc1 [Example 7j, 3-[4-[4-(methylsulfonylmethyl)-6-morpholin-4-yl-pyrimidin-2-yl]phenyl]-1-pentyl-urea]",1900
8,"CS(=O)(=O)Cc1cc(N2CCOCC2)nc(-c2ccc(NC(=O)Nc3ccc(F)c(F)c3)cc2)n1 [Example 7k, 3-(3,4-difluorophenyl)-1-[4-[4-(methylsulfonylmethyl)-6-morpholin-4-yl-pyrimidin-2-yl]phenyl]urea]",720
9,"CS(=O)(=O)Cc1cc(N2CCOCC2)nc(-c2ccc(NC(=O)NC3CCCCC3)cc2)n1 [Example 7l, 3-cyclohexyl-1-[4-[4-(methylsulfonylmethyl)-6-morpholin-4-yl-pyrimidin-2-yl]phenyl]urea]",7000
10,"CCCNC(=O)Nc1ccc(-c2nc(CS(C)(=O)=O)cc(N3CCOCC3)n2)cc1 [Example 7n, 3-[4-[4-(methylsulfonylmethyl)-6-morpholin-4-yl-pyrimidin-2-yl]phenyl]-1-propyl-urea]",200
11,"CCc1cccc(NC(=O)Nc2ccc(-c3nc(CS(C)(=O)=O)cc(N4CCOCC4)n3)cc2)c1 [Example 7o, 1-(3-ethylphenyl)-3-[4-[4-(methylsulfonylmethyl)-6-morpholin-4-yl-pyrimidin-2-yl]phenyl]urea]",1700
12,"CS(=O)(=O)Cc1cc(N2CCOCC2)nc(-c2ccc(NC(=O)NCc3ccco3)cc2)n1 [Example 7p, 3-(2-furylmethyl)-1-[4-[4-(methylsulfonylmethyl)-6-morpholin-4-yl-pyrimidin-2-yl]phenyl]urea]",3800
13,"CS(=O)(=O)Cc1cc(N2CCOCC2)nc(-c2ccc(NC(=O)NCCc3cccs3)cc2)n1 [Example 7q, 1-[4-[4-(methylsulfonylmethyl)-6-morpholin-4-yl-pyrimidin-2-yl]phenyl]-3-(2-thiophen-2-ylethyl)urea]",1700
14,"CS(=O)(=O)Cc1cc(N2CCOCC2)nc(-c2ccc(NC(=O)Nc3cccs3)cc2)n1 [Example 7r, 1-[4-[4-(methylsulfonylmethyl)-6-morpholin-4-yl-pyrimidin-2-yl]phenyl]-3-thiophen-2-yl-urea]",190
15,"CS(=O)(=O)Cc1cc(N2CCOCC2)nc(-c2ccc(NC(=O)NC3CC3)cc2)n1 [Example 8, 3-Cyclopropyl-1-[4-[4-(methylsulfonylmethyl)-6-morpholin-4-yl-pyrimidin-2-yl]phenyl]urea]",31
16,"CC(C)(C)NC(=O)Nc1ccc(-c2nc(CS(C)(=O)=O)cc(N3CCOCC3)n2)cc1 [Example 8a, 1-[4-[4-(methylsulfonylmethyl)-6-morpholin-4-yl-pyrimidin-2-yl]phenyl]-3-tert-butyl-urea]",470
17,"CC(=O)NCCNC(=O)Nc1ccc(-c2nc(CS(C)(=O)=O)cc(N3CCOCC3)n2)cc1 [Example 8b, N-[2-[[4-[4-(methylsulfonylmethyl)-6-morpholin-4-yl-pyrimidin-2-yl]phenyl]carbamoylamino]ethyl]acetamide]",420
18,"CN(C)CCN(C)C(=O)Nc1ccc(-c2nc(CS(C)(=O)=O)cc(N3CCOCC3)n2)cc1 [Example 8c, 1-(2-dimethylaminoethyl)-1-methyl-3-[4-[4-(methylsulfonylmethyl)-6-morpholin-4-yl-pyrimidin-2-yl]phenyl]urea]",2200
19,"CS(=O)(=O)Cc1cc(N2CCOCC2)nc(-c2ccc(NC(=O)NCc3ncc[nH]3)cc2)n1 [Example 8d, 3-(1H-imidazol-2-ylmethyl)-1-[4-[4-(methylsulfonylmethyl)-6-morpholin-4-yl-pyrimidin-2-yl]phenyl]urea]",570
20,"CN(C(=O)Nc1ccc(-c2nc(CS(C)(=O)=O)cc(N3CCOCC3)n2)cc1)C1CC1 [Example 8e, 1-cyclopropyl-1-methyl-3-[4-[4-(methylsulfonylmethyl)-6-morpholin-4-yl-pyrimidin-2-yl]phenyl]urea]",280
21,"CC(C)CNC(=O)Nc1ccc(-c2nc(CS(C)(=O)=O)cc(N3CCOC[C@@H]3C)n2)cc1 [Example 8f, 1-[4-[4-[(3S)-3-Methylmorpholin-4-yl]-6-(methylsulfonylmethyl)pyrimidin-2-yl]phenyl]-3-(2-methylpropyl)urea]",300
22,"CC(C)NC(=O)Nc1cccc(-c2nc(CS(C)(=O)=O)cc(N3CCOC[C@@H]3C)n2)c1 [Example 8g, 1-[3-[4-[(3S)-3-Methylmorpholin-4-yl]-6-(methylsulfonylmethyl)pyrimidin-2-yl]phenyl]-3-propan-2-yl-urea]",960
23,"CCNC(=O)Nc1cccc(-c2nc(CS(C)(=O)=O)cc(N3CCOC[C@@H]3C)n2)c1 [Example 8h, 3-Ethyl-1-[3-[4-[(3S)-3-methylmorpholin-4-yl]-6-(methylsulfonylmethyl)pyrimidin-2-yl]phenyl]urea]",920
24,"CCNC(=O)Nc1ccc(-c2nc(CS(C)(=O)=O)cc(N3CCOC[C@@H]3C)n2)cc1Cl [Example 8i, 1-[2-Chloro-4-[4-[(3S)-3-methylmorpholin-4-yl]-6-(methylsulfonylmethyl)pyrimidin-2-yl]phenyl]-3-ethyl-urea]",1400
25,"CNC(=O)Nc1ccc(-c2nc(CS(C)(=O)=O)cc(N3CCOC[C@@H]3C)n2)cc1C [Example 8j, 3-Methyl-1-[2-methyl-4-[4-[(3S)-3-methylmorpholin-4-yl]-6-(methylsulfonylmethyl)pyrimidin-2-yl]phenyl]urea]",160
26,"CC(C)S(=O)(=O)Cc1cc(N2CCOC[C@@H]2C)nc(-c2ccc(NC(=O)Nc3ccccc3)cc2)n1 [Example 9, 1-[4-[4-[(3S)-3-Methylmorpholin-4-yl]-6-(propan-2-ylsulfonylmethyl)pyrimidin-2-yl]phenyl]-3-phenyl-urea]",590
